One test relates to NIH:OVCAR-3 cells. Description: Assay on inhibition of OVCAR3 tumor cell proliferation (CellTiter-Glo). It counts as cell-based. The following applies: Homo sapiens, OVCAR-3, 72 h, 3 days of drug treatment, read-out: IC50 (μM), inhibitory effects of compounds on tumor cell proliferation. The procedure:
NIH:OVCAR-3 cells (ATCC, Cat No. HTB-161, purchased from Co-Bier) were seeded into a T75 culture flask and cultured in an RPMI 1640 medium containing 20% FBS for 3 days in preparation for subsequent culturing and seeding into a 96-well plate for the cell proliferation assay.
The OVCAR3 cells were seeded at a density of 3000 cells/100 μL/well into the 96-well cell plate, and then the plate was incubated in an incubator (37° C., 5% CO2) for 18 h. On the second day, drug treatment was started. Serially diluted test compound solutions (each drug starting at a concentration of 10 μM, diluted in DMSO, with a dilution ratio of 1:3, and nine gradient points for each drug) or DMSO (negative control) was added to the medium in the plate at 100 μL/well, and a blank group was set up with only medium, but no seeded cell strains. After the drug addition, the plate was incubated in the incubator for another 3 days (37° C., 5% CO2). On the fourth day, plate detection was performed. To each well, 100 μL of CellTiter-Glo reagent (Promega G9243) was added. The plate was shaken for 5 min and then left to stand at room temperature for 5 min. The chemical luminescence signal value of each well was determined using a microplate reader (PerkinElmer EnVision®2104). Cell proliferation inhibition rate=(1−(compound group−blank group)/(DMSO group−blank group))×100%. Then, the IC50 value of each compound was calculated using the GraphPad Prism 8 software.

In test [1] the target is recombinant protein KIF18A (kinesin domain: aa 1-467) (Homo sapiens (Human), UniProt Q8NI77). Description: Assay on inhibition of KIF18A enzymatic activity (ADP-Glo). Type of test: biochemical. The following applies: KIF18A 80 nM, ATP 80 μM, 3 h at room temperature, ADP-Glo luminescence; read-out: IC50 (μM), inhibitory effects of compounds on KIF18A enzymatic activity. The text has this: The recombinant protein KIF18A (kinesin domain: aa 1-467) used in this assay was expressed by the Bac-to-Bac baculovirus expression system from Invitrogen, and the resulting protein was purified for use in this assay (Seki, M. et al. 2003 Nucleic Acids Res.). Quantitative detection of KIF18A enzymatic activity was completed using an ADP-Glo™ kinase assay kit (Promega Inc). Related procedures strictly followed the product instructions, which are briefly described as follows:
The reaction system consisted of a test compound, the recombinant protein KIF18A (aa 1-467), ATP (Promega Inc), and an assay buffer. The test compound was prepared into a 0.5 mM stock solution using DMSO (Sigma Inc) and then serially diluted in DMSO. The assay buffer consisted of an aqueous solution of 15 mM Tris, 10 mM MgCl2 (Sigma Inc), 0.01% Pluronic F-68 (Life Technologies Inc), 1 μM paclitaxel (Cytoskeleton Inc), 30 μg/mL porcine tubulin (Cytoskeleton Inc), and 2% DMSO. The KIF18A protein (final concentration: 80 nM) and the compound at different concentrations (1 μL) were added to the prepared assay buffer (50 μL), and the mixture was incubated at room temperature for 15 min. Then, ATP (final concentration: 80 μM) was added to the reaction mixture, and the resulting mixture was incubated at room temperature for 3 h. After the reaction was completed, 5 μL of the ADP-Glo™ reagent and 2.5 μL of the reaction mixture were added to a 384-well plate (Grenier Inc). The resulting mixture was mixed homogeneously, then sealed by an aluminum foil sealing film, and incubated at room temperature in the dark for 40 min. Finally, 10 μL of the […] was added to each reaction well, and the mixture was incubated at room temperature in the dark for 40 min. After all reactions were completed, the luminescence values of the wells were read on a microplate reader (Molecular Device_SpectraMax Id5), and the inhibition ratios were calculated. The calculation formula for the inhibition rates was as follows: inhibition rate=(1−(compound group−blank group)/(negative control group−blank group))×100%. Then, based on the inhibition rates at different compound concentrations, the IC50 value of the test compound was calculated using the GraphPad Prism 8 software.

recombinant protein KIF18A (kinesin domain: aa 1-467), sequence (Q8NI77 1-467): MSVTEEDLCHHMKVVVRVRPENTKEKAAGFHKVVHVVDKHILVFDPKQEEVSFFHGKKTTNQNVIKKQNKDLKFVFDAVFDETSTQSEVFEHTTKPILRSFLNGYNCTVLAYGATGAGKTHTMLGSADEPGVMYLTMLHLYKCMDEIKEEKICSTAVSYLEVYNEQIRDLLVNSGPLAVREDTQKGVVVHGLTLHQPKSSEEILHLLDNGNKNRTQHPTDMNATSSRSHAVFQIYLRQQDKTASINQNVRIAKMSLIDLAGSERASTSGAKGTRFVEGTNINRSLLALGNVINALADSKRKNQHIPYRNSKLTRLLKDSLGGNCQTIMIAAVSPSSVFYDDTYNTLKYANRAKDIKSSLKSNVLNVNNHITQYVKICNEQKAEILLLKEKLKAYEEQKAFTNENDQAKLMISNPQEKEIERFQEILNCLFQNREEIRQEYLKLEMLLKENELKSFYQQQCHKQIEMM
recombinant protein KIF18A (kinesin domain: aa 1-467), sequence (P02550 whole entry partner, the tested form may be a part): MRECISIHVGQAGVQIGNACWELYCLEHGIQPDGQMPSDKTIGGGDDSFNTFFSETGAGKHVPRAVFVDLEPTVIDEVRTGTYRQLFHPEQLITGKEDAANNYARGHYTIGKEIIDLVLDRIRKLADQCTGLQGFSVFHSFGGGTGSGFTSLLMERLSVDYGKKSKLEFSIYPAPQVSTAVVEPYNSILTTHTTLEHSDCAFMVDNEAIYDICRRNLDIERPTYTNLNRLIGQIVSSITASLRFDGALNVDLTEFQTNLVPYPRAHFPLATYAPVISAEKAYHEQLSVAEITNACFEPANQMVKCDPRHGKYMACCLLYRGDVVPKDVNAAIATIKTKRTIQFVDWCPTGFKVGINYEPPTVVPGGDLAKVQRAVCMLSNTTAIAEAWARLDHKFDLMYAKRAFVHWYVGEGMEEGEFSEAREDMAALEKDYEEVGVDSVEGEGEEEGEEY
recombinant protein KIF18A (kinesin domain: aa 1-467), sequence (P02554 whole entry partner, the tested form may be a part): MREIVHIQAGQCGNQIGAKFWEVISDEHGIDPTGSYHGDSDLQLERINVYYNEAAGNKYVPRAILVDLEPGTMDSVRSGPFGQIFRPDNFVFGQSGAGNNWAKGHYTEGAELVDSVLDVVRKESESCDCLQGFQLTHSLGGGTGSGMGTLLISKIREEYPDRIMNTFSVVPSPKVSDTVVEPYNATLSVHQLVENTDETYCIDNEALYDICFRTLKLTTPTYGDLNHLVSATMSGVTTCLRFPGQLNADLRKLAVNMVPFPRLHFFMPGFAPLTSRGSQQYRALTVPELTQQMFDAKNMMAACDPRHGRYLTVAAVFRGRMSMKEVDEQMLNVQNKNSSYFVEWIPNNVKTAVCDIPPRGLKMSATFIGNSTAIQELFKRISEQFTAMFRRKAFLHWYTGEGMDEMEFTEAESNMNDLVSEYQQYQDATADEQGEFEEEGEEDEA

As to `Cc1cc(-c2cnn(-c3ccc(NS(=O)(=O)[C@H](C)CO)cc3N3CCC4(CC3)CC4)c2)nc(N2CCC(F)(F)CC2)n1` [Example I-111, (R)—N-(4-(4-(2-(4,4-Difluoropiperidin-1-yl)-6-methylpyrimidin-4-yl)-1H-pyrazol-1-yl)-3-(6-azaspiro[2.5]octan-6-yl)phenyl)-1-hydroxypropane-2-sulfonamide], the IC50 was found to be 0.073 µM in the test on NIH:OVCAR-3 cells and 0.005 µM in test [1]. Taken in the same sequence, the figures for `Cc1cc(-c2cnn(-c3ccc(NS(=O)(=O)CCO)cc3N3CCC4(CC3)CC4)c2)nc(N2CC3C(C2)C3(F)F)n1` (stereo not drawn) [Example I-113, N-(4-(4-(2-(6,6-Difluoro-3-azabicyclo[3.1.0]hexan-3-yl)-6-methylpyrimidin-4-yl)-1H-pyrazol-1-yl)-3-(6-azaspiro[2.5]octan-6-yl)phenyl)-2-hydroxyethane-1-sulfonamide] were 0.051 µM and 0.007 µM. As for `Cc1cc(-c2nnc(-c3ccc(NS(=O)(=O)CCO)cc3N3CCC4(CC3)CC4)o2)nc(N2CCC(F)CC2)n1` [Example I-8, N-(4-(5-(2-(4-fluoropiperidin-1-yl)-6-methylpyrimidin-4-yl)-1,3,4-oxadiazol-2-yl)-3-(6-azaspiro [2.5]octan-6-yl)phenyl)-2-hydroxyethanesulfonamide], the figures for the IC50 (in the test on NIH:OVCAR-3 cells; in test [1]) were 0.035 µM and 0.002 µM, respectively.

For the compound `O=S(=O)(CCO)Nc1ccc(-n2cc(-c3cc(C(F)F)nc(N4CCC(F)(F)CC4)c3)cn2)c(N2CCC3(CC2)CC3)c1` [Example I-107, N-(4-(4-(2-(Difluoromethyl)-6-(4,4-difluoropiperidin-1-yl)pyridin-4-yl)-1H-pyrazol-1-yl)-3-(6-azaspiro[2.5]octan-6-yl)phenyl)-2-hydroxyethane-1-sulfonamide], the values for the IC50 (with NIH:OVCAR-3 cells; in test [1]) were 0.213 µM and 0.008 µM, respectively. Taken in the same sequence, the figures for `Cc1cc(-c2cnn(-c3ccc(NS(=O)(=O)CCO)cc3N3CCC4(CC3)CC4)c2)nc(N2CCCC(F)(F)C2)n1` [Example I-118, N-(4-(4-(2-(3,3-Difluoropiperidin-1-yl)-6-methylpyrimidin-4-yl)-1H-pyrazol-1-yl)-3-(6-azaspiro[2.5]octan-6-yl)phenyl)-2-hydroxyethane-1-sulfonamide] were 0.184 µM and 0.002 µM. Taken in the same sequence, the figures for `Cc1cc(-c2cnn(-c3ccc(NS(=O)(=O)CCO)cc3N3CCC4(CC3)CC4)c2)nc(C2CCC(F)(F)CC2)n1` [Example I-110, N-(4-(4-(2-(4,4-Difluorocyclohexyl)-6-methylpyrimidin-4-yl)-1H-pyrazol-1-yl)-3-(6-azaspiro[2.5]octan-6-yl)phenyl)-2-hydroxyethane-1-sulfonamide] were 0.061 µM and 0.002 µM. As to `Cc1cc(-c2cnn(-c3ccc(NS(=O)(=O)CCO)cc3N3CCC(C)CC3)c2)nc(N2CCC(F)(F)CC2)n1` [Example I-125, N-(4-(4-(2-(4,4-Difluoropiperidin-1-yl)-6-methylpyrimidin-4-yl)-1H-pyrazol-1-yl)-3-(4-methylpiperidin-1-yl)phenyl)-2-hydroxyethane-1-sulfonamide], the IC50 in test [1] was determined as 0.005 µM. In the case of `Cc1cc(-c2cnn(-c3ccc(NS(=O)(=O)CCO)cc3N3CCC(C)(F)CC3)c2)nc(N2CCC(F)(F)CC2)n1` [Example I-117, N-(4-(4-(2-(4,4-Difluoropiperidin-1-yl)-6-methylpyrimidin-4-yl)-1H-pyrazol-1-yl)-3-(4-fluoro-4-methylpiperidin-1-yl)phenyl)-2-hydroxyethane-1-sulfonamide], the IC50 came to 0.365 µM with NIH:OVCAR-3 cells and 0.009 µM in test [1]. Taken in the same sequence, the figures for `Cc1cc(-c2nnc(-c3ccc(NS(=O)(=O)CCO)cc3N3CCC4(CC3)CC4)o2)nc(N2CCC(F)(F)CC2)n1` [Example I-2, N-(4-(5-(2-(4,4-Difluoropiperidin-1-yl)-6-methylpyrimidin-4-yl)-1,3,4-oxadiazol-2-yl)-3-(6-azaspiro[2.5]octan-6-yl)phenyl)-2-hydroxyethane-1-sulfonamide] were 0.08 µM and 0.002 µM. As to `O=S(=O)(CCO)Nc1ccc(-n2cc(-c3ccnc(N4CCC(F)(F)CC4)n3)cn2)c(N2CCC3(CC2)CC3)c1` [Example I-109, N-(4-(4-(2-(4,4-Difluoropiperidin-1-yl)pyrimidin-4-yl)-1H-pyrazol-1-yl)-3-(6-azaspiro[2.5]octan-6-yl)phenyl)-2-hydroxyethane-1-sulfonamide], the IC50 with NIH:OVCAR-3 cells was found to be 0.066 µM; in test [1] it was 0.005 µM. Taken in the same sequence, the figures for `O=S(=O)(CCO)Nc1ccc(-n2cc(-c3nc(N4CCC(F)(F)CC4)ncc3F)cn2)c(N2CCC3(CC2)CC3)c1` [Example I-129, N-(4-(4-(2-(4,4-Difluoropiperidin-1-yl)-5-fluoropyrimidin-4-yl)-1H-pyrazol-1-yl)-3-(6-azaspiro[2.5]octan-6-yl)phenyl)-2-hydroxyethane-1-sulfonamide] were 0.148 µM and 0.009 µM. Consider `Cc1cc(-n2cc(-c3ccc(NS(=O)(=O)CCO)cc3N3CCC4(CC3)CC4)cn2)nc(N2CCC(F)(F)CC2)n1` [Example I-81, N-(4-(1-(2-(4,4-Difluoropiperidin-1-yl)-6-methylpyrimidin-4-yl)-1H-pyrazol-4-yl)-3-(6-azaspiro[2.5]octan-6-yl)phenyl)-2-hydroxyethane-1-sulfonamide], for which, in the test on NIH:OVCAR-3 cells, the IC50 amounted to 0.393 µM. With `Cc1cc(-c2nnc(-c3ccc(NS(=O)(=O)CCO)cc3N3CCC4(CC3)CC4)o2)nc(N2CCCC(C(F)(F)F)C2)c1` (stereo not drawn) [Example I-103, N-(4-(5-(4-Methyl-6-(3-(trifluoromethyl)piperidin-1-yl)pyridin-2-yl)-1,3,4-oxadiazol-2-yl)-3-(6-azaspiro[2.5]octan-6-yl)phenyl)-2-hydroxyethane-1-sulfonamide], the IC50 in test [1] is 0.012 µM.

Turning to `Cc1cc(-c2nnc(-c3ccc(NS(=O)(=O)CCO)cc3N3CCC4(CC3)CC4)o2)nc(N2CCC(C(F)(F)F)C2)n1` (stereo not drawn) [Example I-98, N-(4-(5-(6-methyl-2-(3-(trifluoromethyl)pyrrolidin-1-yl)pyrimidin-4-yl)-1,3,4-oxadiazol-2-yl)-3-(6-azaspiro [2.5]octan-6-yl)phenyl)-2-hydroxyethane-sulfonamide], in test [1], the IC50 was 0.018 µM. Take `Cc1cc(-c2nnc(-c3ccc(NS(=O)(=O)CCO)cc3N3CCC4(CC3)CC4)o2)c(F)c(N2CCC(F)(F)CC2)n1` [Example I-53]: the IC50 in the test on NIH:OVCAR-3 cells came to 0.214 µM. Take `Cc1cc(-c2nnc(-c3ccc(NS(=O)(=O)CCO)cc3N3CCC4(CC3)CC4)o2)nc(N2CCC(C(F)(F)F)C2)c1` (stereo not drawn) [Example I-104, N-(4-(5-(4-Methyl-6-(3-(trifluoromethyl)pyrrolidin-1-yl)pyridin-2-yl)-1,3,4-oxadiazol-2-yl)-3-(6-azaspiro[2.5]octan-6-yl)phenyl)-2-hydroxyethane-1-sulfonamide]: the IC50 in test [1] was 0.013 µM.

In the case of `Cc1cc(-c2nnc(-c3ccc(NS(=O)(=O)CCO)cc3N3CCC4(CC3)CC4)s2)nc(OCCC(F)(F)F)n1` [Example I-99, N-(4-(5-(6-Methyl-2-(3,3,3-trifluoropropoxy)pyrimidin-4-yl)-1,3,4-thiadiazol-2-yl)-3-(6-azaspiro[2.5]octan-6-yl)phenyl)-2-hydroxyethane-1-sulfonamide], the IC50 in the test on NIH:OVCAR-3 cells stood at 0.205 µM.

The record behind these values is patent US20250250264A1, “KIF18A INHIBITOR AND USE THEREOF” (Wuhan Humanwell Innovative Drug Research and Development …, priority 2022, published 2025).
